Results from patent US20220025058A1, “METHODS AND PHARMACEUTICAL COMPOSITIONS FOR THE TREATMENT OF ACUTE MYELOID LEUKEMIA BY ERADICATING LEUKEMIC STEM CELLS” (INSERM (INSTITUT NATIONAL DE LA SANTÉ ET DE LA RECHERCHE …, priority 2018, published 2022).

System: MOLM-14 cells
Assay: EC50 experiments (MTS cell viability) on MOLM-14 cells sorted from xenografted mice
Format: cell-based
Conditions: Homo sapiens, MOLM-14, 168 h, after one week of in vitro culture
Procedure: The day before experiment, cells were adjusted to 3×10^5 cells/ml final concentration and plated in a 96-well plate (final volume: 100 μl). To measure half-maximal inhibitory concentration (EC50), increased concentrations of AraC or idarubicin were added to the medium. After two days, 20 μl per well of MTS solution (Promega) was added for two hours and then absorbance was recorded at 490 nm with a 96-well plate reader. The doses that decrease cell viability to 50% (EC50) were analyzed Nonlinear regression log [inhibitor] vs. normalized response-variable slope with GraphPad Prism software.
After 10 days, shRNA expression was activated and the mice were treated with 30 mg/kg/day cytarabine for 5 days (FIG. 2A). […] Also MOLM-14 expressing shCTR and treated by vehicle or AraC were sorted by flow cytometry, and plated in vitro for further experiments. […] To evaluate the role of CALCRL in this chemoresistance acquired in vivo, we undertook to deplete CALCRL in these cells.

[1] = MOLM-14 shCTR cells from AraC treated group mice
[2] = MOLM-14 shCTR cells from vehicle group mice

Compound | EC50 [1] | EC50 [2]
Nc1ccn([C@@H]2O[C@H](CO)[C@@H](O)[C@@H]2O)c(=O)n1 [AraC, cytarabine] | 6710 nM | 2240 nM
CC(=O)[C@]1(O)Cc2c(O)c3c(c(O)c2[C@@H](O[C@H]2C[C@H](N)[C@H](O)[C@H](C)O2)C1)C(=O)c1ccccc1C3=O [idarubicin] | 60.5 nM | 28.6 nM
